In ChEMBL document CHEMBL3885861, “Open TG-GATES”:

Species on record: Rattus norvegicus
Experiment: Open TG-GATES - Regimen: Single
Assay type: toxicity, organism-based, Sprague-Dawley
Set-up: regimen Single, gender Male, age 6 weeks
Settings: in vivo, po, route gavage; for APTT / Bas / Eos / Fbg / Hb / Ht / Lym / MCHC / MCV / Mono / Neu / PT / Plat / RBC / Ret / WBC: tissue Blood; for KIDNEY_L / KIDNEY_R / KIDNEY_TOTAL: tissue Kidney; for LIVER: tissue Liver; for ALP / ALT / AST / BUN / CRE / DBIL / GLC / IP / K / LDH / Na / PL / RALB / TBIL / TC / TG / TP / gamma-GTP: tissue Plasma
[1] = 1000 mg/kg, 3 h, dose level Middle
[2] = 1000 mg/kg, 6 h, dose level Middle
[3] = 1000 mg/kg, 9 h, dose level Middle
[4] = 1000 mg/kg, 24 h, dose level Middle
[5] = 2000 mg/kg, 3 h, dose level High
[6] = 2000 mg/kg, 6 h, dose level High
[7] = 2000 mg/kg, 9 h, dose level High
[8] = 2000 mg/kg, 24 h, dose level High

## C#C[C@]1(O)CC[C@H]2[C@@H]3CCC4=Cc5oncc5C[C@]4(C)[C@H]3CC[C@@]21C [DANAZOL]
[1]
  TERMINAL_BW: 216 g
  APTT: 22.9 s
  Bas: 0%
  Eos: 1%
  Fbg: 300.8 mg/dL
  Hb: 13.5 g/dL
  Ht: 40.7%
  Lym: 79.2%
  MCHC: 33.1%
  MCV: 63.8 fL
  Mono: 2.4%
  Neu: 16.2%
  PT: 15.7 s
  Plat: 103.2 x10_4/uL
  RBC: 638.4 x10_4/ul
  Ret: 7.1%
  WBC: 83.8 x10_2/uL
  KIDNEY_L: 0.9 g
  KIDNEY_R: 0.9 g
  KIDNEY_TOTAL: 1.8 g
  LIVER: 9.6 g
  ALP: 1405.8 IU/L
  ALT: 41.8 IU/L
  AST: 78 IU/L
  BUN: 14 mg/dL
  CRE: 0.2 mg/dL
  DBIL: 0.002 mg/dL
  GLC: 178.6 mg/dL
  IP: 7.6 mg/dL
  K: 4.1 meq/L
  LDH: 128 IU/L
  Na: 142.4 meq/L
  PL: 129 mg/dL
  RALB: 3 g/dL
  TBIL: 0.022 mg/dL
  TC: 66.6 mg/dL
  TG: 73.4 mg/dL
  TP: 5.5 g/dL
  gamma-GTP: 1.8 IU/L
[2]
  TERMINAL_BW: 216.7 g
  APTT: 22.9 s
  Bas: 0%
  Eos: 1%
  Fbg: 306.4 mg/dL
  Hb: 13 g/dL
  Ht: 39.6%
  Lym: 74.2%
  MCHC: 32.8%
  MCV: 62.6 fL
  Mono: 3%
  Neu: 21%
  PT: 16.4 s
  Plat: 107.1 x10_4/uL
  RBC: 633.6 x10_4/ul
  Ret: 7.6%
  WBC: 97.7 x10_2/uL
  KIDNEY_L: 0.9 g
  KIDNEY_R: 1 g
  KIDNEY_TOTAL: 1.9 g
  LIVER: 9.5 g
  ALP: 1279 IU/L
  ALT: 34.4 IU/L
  AST: 70.8 IU/L
  BUN: 10.2 mg/dL
  CRE: 0.1 mg/dL
  DBIL: 0.002 mg/dL
  GLC: 181.8 mg/dL
  IP: 9.3 mg/dL
  K: 4.2 meq/L
  LDH: 139.8 IU/L
  Na: 141.4 meq/L
  PL: 131.6 mg/dL
  RALB: 3 g/dL
  TBIL: 0.026 mg/dL
  TC: 67 mg/dL
  TG: 60.4 mg/dL
  TP: 5.4 g/dL
  gamma-GTP: 1.4 IU/L
[3]
  TERMINAL_BW: 208.1 g
  APTT: 21.9 s
  Bas: 0%
  Eos: 0.6%
  Fbg: 302.4 mg/dL
  Hb: 12.9 g/dL
  Ht: 39.7%
  Lym: 77.8%
  MCHC: 32.6%
  MCV: 62.9 fL
  Mono: 2.2%
  Neu: 18.6%
  PT: 16.7 s
  Plat: 114.4 x10_4/uL
  RBC: 630.2 x10_4/ul
  Ret: 7.3%
  WBC: 82.7 x10_2/uL
  KIDNEY_L: 0.9 g
  KIDNEY_R: 1 g
  KIDNEY_TOTAL: 1.9 g
  LIVER: 8.6 g
  ALP: 1309.4 IU/L
  ALT: 33.6 IU/L
  AST: 66.8 IU/L
  BUN: 9.6 mg/dL
  CRE: 0.1 mg/dL
  DBIL: 0.014 mg/dL
  GLC: 178.8 mg/dL
  IP: 9.4 mg/dL
  K: 4.2 meq/L
  LDH: 139 IU/L
  Na: 141.4 meq/L
  PL: 109 mg/dL
  RALB: 3 g/dL
  TBIL: 0.038 mg/dL
  TC: 54.4 mg/dL
  TG: 53 mg/dL
  TP: 5.4 g/dL
  gamma-GTP: 1.6 IU/L
[4]
  TERMINAL_BW: 216 g
  APTT: 23.2 s
  Bas: 0%
  Eos: 1%
  Fbg: 290 mg/dL
  Hb: 13.6 g/dL
  Ht: 41%
  Lym: 81.5%
  MCHC: 33.2%
  MCV: 62.3 fL
  Mono: 2.8%
  Neu: 13.5%
  PT: 17.8 s
  Plat: 107.7 x10_4/uL
  RBC: 658.6 x10_4/ul
  Ret: 6.6%
  WBC: 73 x10_2/uL
  KIDNEY_L: 1 g
  KIDNEY_R: 1 g
  KIDNEY_TOTAL: 2 g
  LIVER: 10.5 g
  ALP: 1988.8 IU/L
  ALT: 42.4 IU/L
  AST: 72.2 IU/L
  BUN: 13.8 mg/dL
  CRE: 0.1 mg/dL
  DBIL: 0 mg/dL
  GLC: 184.6 mg/dL
  IP: 6.5 mg/dL
  K: 4.5 meq/L
  LDH: 186 IU/L
  Na: 141 meq/L
  PL: 123 mg/dL
  RALB: 3.1 g/dL
  TBIL: 0.002 mg/dL
  TC: 45.8 mg/dL
  TG: 233.4 mg/dL
  TP: 5.5 g/dL
  gamma-GTP: 1.2 IU/L
[5]
  TERMINAL_BW: 217 g
  APTT: 22.7 s
  Bas: 0%
  Eos: 1%
  Fbg: 312.2 mg/dL
  Hb: 13.3 g/dL
  Ht: 40.5%
  Lym: 77.2%
  MCHC: 33%
  MCV: 62.8 fL
  Mono: 3.2%
  Neu: 18.2%
  PT: 15.5 s
  Plat: 120.2 x10_4/uL
  RBC: 644 x10_4/ul
  Ret: 7.3%
  WBC: 73.3 x10_2/uL
  KIDNEY_L: 1 g
  KIDNEY_R: 1 g
  KIDNEY_TOTAL: 2 g
  LIVER: 9.7 g
  ALP: 1466 IU/L
  ALT: 45 IU/L
  AST: 78 IU/L
  BUN: 13.6 mg/dL
  CRE: 0.1 mg/dL
  DBIL: 0 mg/dL
  GLC: 178.2 mg/dL
  IP: 8.5 mg/dL
  K: 4.4 meq/L
  LDH: 162 IU/L
  Na: 141 meq/L
  PL: 138.4 mg/dL
  RALB: 3.1 g/dL
  TBIL: 0.02 mg/dL
  TC: 68.2 mg/dL
  TG: 99.2 mg/dL
  TP: 5.4 g/dL
  gamma-GTP: 1.8 IU/L
[6]
  TERMINAL_BW: 217.1 g
  APTT: 23.2 s
  Bas: 0%
  Eos: 1%
  Fbg: 282.6 mg/dL
  Hb: 12.6 g/dL
  Ht: 39%
  Lym: 75.4%
  MCHC: 32.3%
  MCV: 63.5 fL
  Mono: 2.8%
  Neu: 20.6%
  PT: 16.5 s
  Plat: 113.2 x10_4/uL
  RBC: 613 x10_4/ul
  Ret: 8.1%
  WBC: 86.2 x10_2/uL
  KIDNEY_L: 1 g
  KIDNEY_R: 1 g
  KIDNEY_TOTAL: 2 g
  LIVER: 9.6 g
  ALP: 1348.6 IU/L
  ALT: 34.8 IU/L
  AST: 69 IU/L
  BUN: 12.2 mg/dL
  CRE: 0.1 mg/dL
  DBIL: 0 mg/dL
  GLC: 178 mg/dL
  IP: 8.5 mg/dL
  K: 4.5 meq/L
  LDH: 159.6 IU/L
  Na: 140.4 meq/L
  PL: 122.4 mg/dL
  RALB: 2.9 g/dL
  TBIL: 0.028 mg/dL
  TC: 57.6 mg/dL
  TG: 71.6 mg/dL
  TP: 5.3 g/dL
  gamma-GTP: 1.8 IU/L
[7]
  TERMINAL_BW: 216.8 g
  APTT: 23.7 s
  Bas: 0%
  Eos: 0.8%
  Fbg: 276.2 mg/dL
  Hb: 12.7 g/dL
  Ht: 39.3%
  Lym: 74.6%
  MCHC: 32.3%
  MCV: 63.9 fL
  Mono: 2.8%
  Neu: 20.8%
  PT: 16.9 s
  Plat: 110.6 x10_4/uL
  RBC: 615.4 x10_4/ul
  Ret: 7.2%
  WBC: 77.3 x10_2/uL
  KIDNEY_L: 1 g
  KIDNEY_R: 1 g
  KIDNEY_TOTAL: 2 g
  LIVER: 9.1 g
  ALP: 1416.2 IU/L
  ALT: 31.6 IU/L
  AST: 73.8 IU/L
  BUN: 11.6 mg/dL
  CRE: 0.2 mg/dL
  DBIL: 0.004 mg/dL
  GLC: 180.8 mg/dL
  IP: 9.2 mg/dL
  K: 4.2 meq/L
  LDH: 128 IU/L
  Na: 141.2 meq/L
  PL: 110.8 mg/dL
  RALB: 2.9 g/dL
  TBIL: 0.032 mg/dL
  TC: 47.2 mg/dL
  TG: 99.4 mg/dL
  TP: 5.2 g/dL
  gamma-GTP: 1.4 IU/L
[8]
  TERMINAL_BW: 217.9 g
  APTT: 24.3 s
  Bas: 0%
  Eos: 1%
  Fbg: 286.4 mg/dL
  Hb: 13.3 g/dL
  Ht: 39.8%
  Lym: 74.8%
  MCHC: 33.4%
  MCV: 62.7 fL
  Mono: 2.4%
  Neu: 21.4%
  PT: 18.6 s
  Plat: 127.2 x10_4/uL
  RBC: 635.8 x10_4/ul
  Ret: 7.2%
  WBC: 84.4 x10_2/uL
  KIDNEY_L: 1 g
  KIDNEY_R: 1 g
  KIDNEY_TOTAL: 2 g
  LIVER: 10.5 g
  ALP: 1879.4 IU/L
  ALT: 44.4 IU/L
  AST: 76.8 IU/L
  BUN: 12.2 mg/dL
  CRE: 0.1 mg/dL
  DBIL: 0 mg/dL
  GLC: 186 mg/dL
  IP: 6.9 mg/dL
  K: 4.3 meq/L
  LDH: 219.6 IU/L
  Na: 141.6 meq/L
  PL: 121.2 mg/dL
  RALB: 3.1 g/dL
  TBIL: 0 mg/dL
  TC: 44.6 mg/dL
  TG: 266.6 mg/dL
  TP: 5.6 g/dL
  gamma-GTP: 1.2 IU/L
